Here are results for four substances from patent US20130023485A1, “PARENTERAL FORMULATIONS OF PEPTIDES FOR THE TREATMENT OF SYSTEMATIC LUPUS ERYTHEMATOSUS” (Teva Pharmaceutical Industries, Ltd., priority 2003, published 2013).

In one assay the test system is PBL of SLE patients. As to the kind of experiment: Production of IL-2 by PBL in presence of mAb or peptides (CTLD cells). The assay is classed as cell-based, human. On the procedure:
(§1) PBL were isolated from blood of SLE patients or healthy controls using ficol gradient, and were incubated as in Example 11. A sample of 50 μl was removed 24 hr after the assay was started, and incubated in the presence of IL-2 sensitive cells (CTLD) for 24 hr, after which ^3H-thymidine was added for 16 hr, and the plates were harvested and counted on a beta counter.

The test system of the next assay is PBL of healthy controls. The description is as above. The assay is classed as cell-based, human. On the procedure: as §1
Assay [1] concerns antibodies in sera of SLE patients and healthy controls. As to the kind of experiment: ELISA of sera for antibodies binding plate-coated peptides or mAb. On the set-up: species or system human. The conditions noted are these: plates coated with 10 μg/ml; FIG. 7. The protocol: Human SLE patients (32 patients) were bled and their sera were tested by ELISA for their ability to bind the peptides Ia, IIa and 111a, a control peptide p195-212 (a myasthogenic peptide described in PCT publication No. WO 94/00148) or mAb 5G12.
Detection of the antibodies was conducted on plates that were coated with 10 μg/ml of peptides Ia, IIa, IIIa, p195-212 or mAb 5G12, in PBS for 2 hr, washed and blocked with 1% ovalbumin in PBS for an additional 2 hr. ELISA was continued as described after blockage in Example 2 of PCT International Publication No. 96/30057, using goat anti-human IgG polyclonal antibody conjugated to peroxidase.

Assay [2] has as its system PBL from healthy controls. As to the kind of experiment: Proliferation of PBL in presence of mAb or peptides (3H-thymidine). The assay is classed as cell-based, human. The protocol: (§2) Peripheral blood lymphocytes (PBL) were isolated from the blood of SLE patients or healthy controls using ficol gradient. Thereafter, the PBL were incubated in the presence of different concentrations of the peptides Ia, IIa or IIIa, or the human 16/6 Id mAb for 24 hr, when a sample was taken for IL-2 measurement. The assay was continued for a total of 7 days, and ^3H-thymidine was added for the last 16 hr. Proliferation was detected by reading the amount of radioactivity incorporated into the DNA of the cells.
(§3) As is seen in Table 14, a lower proportion of the PBL taken from SLE patients reacted to the peptides or to the 16/6 Id mAb, when compared to the healthy controls. The results are expressed in percentage of responder (34% in the first line) and the actual number of patients (11 out of 32: 11/32).

A further assay relates to PBL from SLE patients. The assay is described as above. The assay is classed as cell-based, human. On the procedure:
as §2, §3

The test system of assay [3] is PBL of SLE patients stimulated with human 16/6Id mAb. The assay is classed as cell-based. The conditions noted are these: for inhibition of proliferative responses to human 16/6Id mAb: PBL of one SLE patient; for Percent Inhibition of proliferation: highest positive inhibition, peptide 50 or 100 μg/well. The protocol:
Cells were then harvested and radioactivity was counted using a β-counter. Results were expressed as mean counts per minute (cpm) of triplicate cultures. Stimulation indices (the ratio of mean cpm at the optimal concentration of 16/6Id to mean cpm without 16/6Id) were then calculated. A stimulation index (SI)≧2 was considered positive. […] Inhibition of above 50% of the proliferative capacity was considered positive. The Table represents the highest positive inhibition capacity for each peptide. […] Both peptides inhibited the proliferation of PBL of 18/19(95%) of responders tested. It can also be seen in the Table that the magnitudes of inhibitions were similar for both peptides. Thus, it can be concluded that peptides based on CDR1 and CDR3 of the human 16/6Id mAb are efficient inhibitors of the proliferation of PBL of SLE patients to the human 16/6Id mAb.

Assay [4] relates to TGF-β secretion by PBL of SLE patients. As to the kind of experiment: Up-regulation of TGF-β secretion by PBL stimulated with human 16/6Id mAb (ELISA). The format is cell-based. On the procedure: For this purpose, supernatants were removed from cultures of PBL of various SLE patients following 48 hours incubation with the human 16/6Id mAb in the absence or presence of the peptides hCDR1 or hCDR3. TGF-β was determined by ELISA according to the manufacturer's instructions. Briefly, Maxisorb plates (Nunc) were coated with recombinant human TGFβsRII/Fc chimera (R & D Systems) diluted in PBS (100 ng/ml). After blocking, cell supernatants were added. After 18 hours incubation the detecting biotinylated anti-human TGF-β antibody (R & D Systems) was added. The substrate solution used was the TMB Colour Reagent (Helix Diagnostics) and enzyme activity was evaluated by the MRX ELISA reader using the 570 nm and 630 nm filters.

Assay [5] has as its system PBL of SLE patients stimulated with phytohemagglutinin (PHA). Description: Proliferation of PBL stimulated with mitogen PHA. The assay is classed as cell-based, human. The conditions noted are these: PHA 2 μg/ml; PBL of one SLE patient, FIG. 9. The protocol: To this end the peptides hCDR1 or hCDR3 were added to cultures of PBL of SLE patients that were stimulated with the mitogen phytohemagglutinin (PHA, 2 μg/ml).

Assay [6] relates to IL-2 secretion by PBL of SLE patients. Description: Inhibition of IL-2 secretion by PBL stimulated with human 16/6Id mAb (CTLL line). The assay is classed as cell-based. The protocol: It was of interest to find out whether the hCDR peptides are capable of inhibiting IL-2 secretion by PBL of SLE patients following stimulation with the human 16/6Id mAb. […] To this end, PBL of SLE patients were incubated with the human 16/6Id mAb in the absence or presence of the peptides hCDR1 or hCDR3. Supernatants of the cultures were collected following 48 hours of incubation. Assays to determine levels of IL-2 in the supernatants were performed using the CTLL IL-2 dependent line. Briefly, cells of the CTLL line (2×10^4/well) were incubated in the presence of the different supernatants for 24 hours, followed by the addition of ^3H-thymidine for an additional 18-hour incubation period. Cells were then harvested and radioactivity counted using a β-counter. Results were calculated based on recombinant human IL-2 used as a standard. The ability of the peptides to inhibit the IL-2 secretion of PBL of 23 responders stimulated by the human 16/6 Id was tested. […] Inhibition of proliferative responses of PBL directly correlated with IL-2 inhibition by the CDR-based peptides.

Read-outs that look alike come from different tables or passages of the source. Bounds are passed on as bounds.

For “YYCARFLWEPYAMDYWGQGS (YYCARFLWEPYAMDYWGQGS) [pep IIIa, based on CDR3 of the VH chain of mAb 5G12]”, in the assay with PBL of SLE patients, the “number of responders / tested (IL-2 production)” value is on record as 5/32 and the “percentage of responders (IL-2 production)” value is reported as 16%. In the assay on PBL of healthy controls, the “number of responders / tested (IL-2 production)” value is given as 16/25 and the “percentage of responders (IL-2 production)” value is 64%. Further, in assay [1], the “levels of serum antibodies binding the coated antigen, SLE patients versus healthy controls” value (from here on “levels … SLE patients versus healthy controls”) was “significantly higher levels”. Besides, in [2], the “number of responders / tested (proliferation)” value is given as 15/25 and the “percentage of responders (proliferation)” value was determined as 60%. In addition, in the assay on PBL from SLE patients, the “number of responders / tested (proliferation)” value is listed as 10/32 and the “percentage of responders (proliferation)” value is listed as 31%. Besides, the “inhibition of proliferative responses to human 16/6Id mAb” value in [3] (FIG. 10) is given as “did not inhibit”.

For “EINPSTGGTTYNQKFKAKAT (EINPSTGGTTYNQKFKAKAT) [pep IIa, based on CDR2 of the VH chain of mAb 5G12]”, the “number of responders / tested (IL-2 production)” value in the assay with PBL of SLE patients is listed as 3/32. Further, in the assay with PBL of healthy controls, the “number of responders / tested (IL-2 production)” value is reported as 8/25 and the “percentage of responders (IL-2 production)” value was 32%. In addition, the “levels … SLE patients versus healthy controls” value in assay [1] is reported as “significantly higher levels”. Moreover, in [2], the “number of responders / tested (proliferation)” value is given as 7/25 and the “percentage of responders (proliferation)” value stood at 28%. For the same substance, in the assay with PBL from SLE patients, the “number of responders / tested (proliferation)” value is 3/32 and the “percentage of responders (proliferation)” value was determined as 9%.

For “TGYYMQWVKQSPEKSLEWIG [pep Ia]”, in the assay with PBL of SLE patients, the “number of responders / tested (IL-2 production)” value was 5/32 and the “percentage of responders (IL-2 production)” value was 16%. In the assay with PBL of healthy controls, the “number of responders / tested (IL-2 production)” value is given as 14/25 and the “percentage of responders (IL-2 production)” value is given as 56%. The “levels … SLE patients versus healthy controls” value in assay [1] is recorded as “significantly higher levels”. In assay [2], the “number of responders / tested (proliferation)” value is given as 11/25 and the “percentage of responders (proliferation)” value was 44%. In the assay with PBL from SLE patients, the “number of responders / tested (proliferation)” value was 7/32 and the “percentage of responders (proliferation)” value was determined as 21%.

Turning to “YYCARGLLRGGWNDVDYYGMDV [hCDR3, peptide based on CDR3 of the human 16/6Id mAb]”, the “Up-Regulation of TGF-β % (patients)” value in [4] (PBL of SLE patients, 48 hours) is 100 (19/19) %. Further, in assay [4] (PBL of one representative SLE patient, FIG. 13), the “secretion of TGF-β” value was “significant up-regulation”. Further, the “Maximum Up-regulation %” value in assay [4] (percent secretion above that in the presence of 16/6 Id alone (= 100%)) is on record as 338 ± 242%. Also, in [5], the “inhibition of proliferative responses to mitogen PHA” value is given as “could not inhibit”. Also, the “patients whose PBL IL-2 secretion was inhibited / tested” value in assay [6] (23 responders) is on record as 19/23. Also, the Maximum inhibition % in [6] (IL-2 secretion with 16/6 Id alone = 100%) was found to be 78 ± 34%. In addition, the “Inhibitory Activity* % (patients with inhibition of 50% or more)” value in assay [6] (PBL of 23 responders) was 83 (19/23) %. The “inhibition of IL-2 secretion” value in assay [6] (PBL of one SLE patient, FIG. 12) is given as 100%. Moreover, the results for the “inhibition of proliferative responses to human 16/6Id mAb” value in assay [3] (FIG. 10) and in [3] (FIG. 11) were “inhibited efficiently” and “did inhibit efficiently”, respectively. The “Percent Inhibition of proliferation” value in [3] (SLE patient Number 1) is recorded as less than 50%; in assay [3] (SLE patient Number 2) it was 75%; in [3] (SLE patient Number 3) it was less than 50%; in assay [3] (SLE patient Number 4) it was less than 50%; in [3] (SLE patient Number 5) it was 87.5%; in [3] (SLE patient Number 6), 80%. Further, the “Percent Inhibition of proliferation” value in assay [3] (SLE patient Number 7) is 70.4%; in assay [3] (SLE patient Number 8), 56%; in assay [3] (SLE patient Number 9), 65%; in assay [3] (SLE patient Number 10), 71.8%; in assay [3] (SLE patient Number 11), 72%; in assay [3] (SLE patient Number 12) it was 86%. Also, the “Percent Inhibition of proliferation” value is given as 64% in [3] (SLE patient Number 13); 74% in assay [3] (SLE patient Number 14); 69% in [3] (SLE patient Number 15); 68% in assay [3] (SLE patient Number 16); 77.8% in assay [3] (SLE patient Number 17); less than 50% in assay [3] (SLE patient Number 18). Also, the “Percent Inhibition of proliferation” value in assay [3] (SLE patient Number 19) was 60.8%. Also, the “responders whose PBL proliferation was inhibited (above 50%)” value in [3] (of the 19 responders tested) worked out at 78.9%. In addition, the “Percent Inhibition of proliferation, Mean ± SD” value in assay [3] (over patients with positive inhibition (above 50%)) is recorded as 71.82 ± 8.44%.
